pIC50: −log10 of the molar value. Like-named read-outs stand apart in the source and are kept apart here.
Columns and labels:
[1] = test system: Human pleural mesothelioma cells NCI-H226; test: Proliferation inhibition assay of human pleural mesothelioma cells NCI-H226 (CCK8); type: cell-based; details: 72 h, 3 days incubation
Excerpt: Experimental Example 1 Cell Anti-Proliferation Test
Proliferation Inhibition Assay of Human Pleural Mesothelioma Cells NCI-H226 by YAP-TEAD Inhibitor Compounds
Experimental materials and equipment: Human pleural mesothelioma cells NCI-H226 were purchased from Nanjing Cobioer Biosciences CO., LTD. RPMI-1640 medium (Bio-Channel), DMSO (dimethyl sulfoxide), CCK8 (WST-8) cell analysis kit (Beyotime), 0.25% EDTA-Tripsin (trypsin solution), 1×PBS (phosphate buffer, PH7.2), 96-well plate (Corning), fetal bovine serum (FBS), 10,000 U/mL penicillin-G/streptomycin, high-speed cryo-centrifuge (EPPENDORF 5810R), enzyme-linked immunoassay (Tecan Spark).
• A) Tumor cells were cultured in RPMI-1640 (containing 10% FBS and 100 U/mL penicillin-G/streptomycin) at 37° C., 5% CO^2 and saturated humidity until 80-90% density. • B) Removed the culture medium from 10 cm Petri dishes; • C) Rinsed the cells once with 10 ml 1×PBS; • D) Added 4 ml 0.25% EDTA-Tripsin into 37° C., 5% CO^2 incubator for trypsin digestion for 5 minutes, transferred to 15 ml centrifuge tube, centrifuged at 200 g for 5 minutes, discarded the supernatant to get cell precipitate; • E) Resuspend with 4 ml DMEM medium, count and adjust to 10,000 cells/ml. • F) Added cell suspension to 96-well plate with 100 μL per well volume and incubate overnight at 37° C., 5% CO^2 incubator.
• A) Preparation of gradient dilution solution of tested compounds: the test compounds were configured into 1 mM reservoir solution. Then 1.5 μl of the reservoir solution was dissolved in 1.5 ml of DMSO-free culture solution, and then a 3-fold serial gradient dilution was performed with 0.1% DMSO culture solution for a total of 9 concentrations, and the concentrations of the compounds after dilution were as follows: • 333.33 nM, 111.11 nM, 37.03 nM, 12.35 nM, 4.15 nM, 1.37 nM, 0.46 nM, 0.15 nM • B) After thorough mixing, 100 μL of culture compound solution was taken separately to replace the culture solution in the cell culture plate, with 4 replicate wells for each concentration; • C) The cells were transferred to the incubator and incubated for 3 days.
• A) Removed the cell culture plate and added 10 μl of CCK-8 (WST-8) solution per well in the biosafety cabinet. • B) Placed the cell culture plate back into the incubator and continued incubation for 3 hours. • C) Determined the absorbance value by selecting 450 nm on a TECAN enzyme-linked immunoassay detector.
The cell viability (% Cell Viability) was calculated using the following formula.
[formula] • A (dosing): absorbance of wells with cells, CCK8 solution and drug solution • A (blank): absorbance of wells with medium and CCK8 solution but no cells • A (0 dosing): absorbance of wells with cells, CCK8 solution and no drug solution • Cell viability: Cell proliferation viability or cytotoxicity viability IC50 values were obtained by curve fitting with GraphPad Prism 8 software.

YAP-TEAD = test: Nano luciferase method to detect YAP-TEAD inhibitor activity (293T cells transfected with pGL3B-8×GTiiC-nLuc-CMV-fLuc); type: cell-based; details: Homo sapiens, HEK-293T, transfected 293T cells, 48 hours incubation, read-out: Nano Luciferas detection (IC50)
Excerpt: Experimental Example 2 Nano Luciferase Method to Detect YAP-TEAD Inhibitor Activity
(1) Experimental materials and equipment: 293T cells were purchased from Nanjing Cobioer Biosciences CO., LTD. DMEM medium (high sugar, phenol red free, Bio-Channel), DMSO (dimethyl sulfoxide), Lipo6000™ transfection reagent (Beyotime), pGL3B-8×GTiiC-nLuc-CMV-fLuc plasmid, 0.25% EDTA Tripsin (trypsin solution), 1×PBS (phosphate buffer, PH7.2), 96-well white cell culture plate (PerkinElmer), Fetal Bovine Serum (FBS), 10,000 U/mL penicillin-G/streptomycin, High-speed cryo-centrifuge (EPPENDORF 5810R), 37° C. CO^2 incubator, Vi-Cell® cell counter, Envision microplate reader (PerkinElmer).
Resuscitated 293T cells were inoculated into 10 cm petri dishes and placed in a 5% CO^2 incubator at a constant temperature of 37° C. To ensure transfection efficiency, cells in the logarithmic phase (cell density of about 50%-70%) should be used.
One day before transfection, cells in logarithmic phase were digested with Trypsin-EDTA, the reaction was terminated by adding medium, and the cell suspension was made by blowing and mixing with a pipette.
The cell concentration was determined using Vi-cell and diluted to a suspension of 5*10^5 cells per milliliter. Once the cell suspension was prepared, it was gently mixed and 10 ml of liquid was added to a 10 cm petri dish. […] The cells were incubated in a 5% CO^2 incubator at 37° C. for 1 day.
Take two clean and sterile centrifuge tubes, added 750 μL of opti-MEM Medium without antibiotics and serum respectively, then added […] of plasmid (pGL3B-8×GTiiC-nLuc-CMV-fLuc) to one of the tubes and gently blown with a pipette for mixing; the other tube was added with Lipo6000 transfection reagent and gently blown with a pipette for mixing. After standing at room temperature for 5 minutes, the culture medium containing DNA was gently added to the culture medium containing Lipo6000 transfection reagent, mixed by gently inverting the centrifuge tube, and stood at room temperature for 5 minutes.
The above mixture was added evenly dropwise to a 10-cm petri dish and replaced with fresh complete medium after 6 h of incubation.
After 1 day of transfection, Trypsin EDTA was used to digest the cells, medium was added to terminate the reaction, and a cell suspension was made by blowing and mixing with a pipette.
Cell concentration was determined using Vi-cell, and diluted to a suspension of 20,000 cells per milliliter.
After the cell suspension was prepared, it was gently mixed and 100 μL was added to each well in a 96-well plate so that the density of cells to be measured was 2000 per well.
The inoculated cell culture plates were incubated in an incubator, and the compounds in concentration gradients were added after about 24 hours.
The 10 mM compound reservoir solution was diluted to 50 μM with culture medium, and 50 μM compound solution was added sequentially to the third column of the deep-well plate, and 216 μL of culture medium containing 0.5% DMSO to the fourth to eleventh columns.
Gradient dilution: 100 μL of solution was pipetted from the third column and added to the fourth column, after mixing; another 100 μL of solution was pipetted from the fourth column and added to the fifth column, and the operation was repeated until the eleventh column.
Using a multichannel pipette, 25 μL of compound solution was pipetted from the deep-well plate and added to the 96-well culture plate, and each compound was repeated four times on the 96-well plate. A concentration gradient with a maximum concentration of 10,000 nM, 1:3.16, was eventually formed on the 96-well plate.
The 96-well plate was incubated in a 5% CO^2 incubator at a constant temperature of 37° C. for 48 hours, then removed and equilibrated at room temperature for 10 minutes.
100 μL of detection reagent was added to each well and placed on a horizontal shaker at low speed for 10 minutes to fully lyse the cells. […]

[2] = reference compounds of WO2009081259A1

Structure (SMILES)	pIC50 [1]	pIC50 (YAP-TEAD)	pIC50 [1, 2]	pIC50 (YAP-TEAD; [2])
C=CC(=O)N1CCC(c2cc(OC)cnc2Oc2ccc(C(F)(F)F)cc2)CC1 [Compound T73]	6.00 to 7.00	6.00 to 7.00	–	–
C=CC(=O)N1CCC(c2cncnc2Nc2ccc(C(F)(F)F)cc2)CC1 [Compound T43]	6.00 to 7.00	6.00 to 7.00	–	–
C=CC(=O)N1CCC(c2ccc(F)nc2Nc2ccc(C(F)(F)F)cc2)CC1 [Compound T24]	≥ 7.00	≥ 7.00	–	–
C=CC(=O)N1CCC(c2cccnc2Nc2ccc(S(F)(F)(F)(F)F)cc2)CC1 [Compound T6]	≥ 7.00	≥ 7.00	–	–
C=CC(=O)N1CC=C(c2nccnc2Nc2ccc(C(F)(F)F)cc2)C1 [Compound T19]	≥ 7.00	≥ 7.00	–	–
C=CC(=O)N1CCC(c2nccnc2Nc2ccc(C(F)(F)F)cc2)C1 (stereo not drawn) [Compound T18]	≥ 7.00	≥ 7.00	–	–
FC(F)(F)c1ccc(Nc2ncc(C(F)(F)F)cc2C2CCNCC2)cc1 [Reference compound 5, reference compound]	–	–	< 5.30	< 5.30
C=CC(=O)N1CCC(c2cc(F)cnc2Oc2ccc(C(F)(F)F)cc2)CC1 [Compound T38]	6.00 to 7.00	6.00 to 7.00	–	–
C=CC(=O)N1CCC(c2cc(C#N)cnc2Oc2ccc(C(F)(F)F)cc2)CC1 [Compound T74]	6.00 to 7.00	6.00 to 7.00	–	–
C=CC(=O)N1CCC(c2cc(-c3ccncc3)cnc2Nc2ccc(C(F)(F)F)cc2)CC1 [Compound T97]	5.30 to 6.00	6.00 to 7.00	–	–
C=CC(=O)N1CCC(c2cc(-c3ccn(C)n3)cnc2Nc2ccc(C(F)(F)F)cc2)CC1 [Compound T54]	6.00 to 7.00	≥ 7.00	–	–
C=CC(=O)N1CCC(c2cc(-c3cn(C)cn3)cnc2Nc2ccc(C(F)(F)F)cc2)CC1 [Compound T62]	6.00 to 7.00	≥ 7.00	–	–
C=C(F)C(=O)N1CCC(c2cccnc2Oc2ccc(C(F)(F)F)cc2)C(F)(F)C1 (stereo not drawn) [Compound T81]	6.00 to 7.00	6.00 to 7.00	–	–
FC(F)(F)c1ccc(Oc2ncc(Cl)cc2C2CCNCC2)cc1 [Reference compound 7, reference compound]	–	–	< 5.30	< 5.30
CC#CC(=O)N1CCC(c2cccnc2Nc2ccc(C(F)(F)F)cc2)CC1 [Compound T50]	5.30 to 6.00	5.30 to 6.00	–	–
FC(F)(F)c1ccc(Oc2ncccc2C2CCNCC2)cc1 [Reference compound 6, reference compound]	–	–	< 5.30	< 5.30
C=CC(=O)N1CCC(c2cc(-c3ccccc3)cnc2Nc2ccc(C(F)(F)F)cc2)CC1 [Compound T56]	≥ 7.00	≥ 7.00	–	–
C=CC(=O)N1CC(c2cccnc2Nc2ccc(S(F)(F)(F)(F)F)cc2)C1 [Compound T10]	≥ 7.00	≥ 7.00	–	–

Structure (SMILES)	pIC50 [1]	pIC50 (YAP-TEAD)	pIC50 [1, 2]	pIC50 (YAP-TEAD; [2])
Cc1ccc(C2CCNCC2)c(Nc2ccc(C(F)(F)F)cc2)n1 [Reference compound 2, reference compound]	–	–	< 5.30	< 5.30
C=CC(=O)N1CCC(c2cccnc2Nc2ccc(C)cc2)C1 (stereo not drawn) [Compound T13]	≥ 7.00	≥ 7.00	–	–
C=CC(=O)N1CCC(c2cc(C(F)(F)F)cnc2Nc2ccc(C(F)(F)F)cc2)CC1 [Compound T47]	6.00 to 7.00	6.00 to 7.00	–	–
C=CC(=O)N1CCC(c2nc(C(F)(F)F)cnc2Nc2ccc(C(F)(F)F)cc2)CC1 [Compound T83]	≥ 7.00	≥ 7.00	–	–
C=CC(=O)N1CCC(c2cc(C)cnc2Oc2ccc(C(F)(F)F)cc2)CC1 [Compound T44]	6.00 to 7.00	6.00 to 7.00	–	–
FC(F)(F)c1ccc(Nc2ncc(Cl)cc2C2CCNCC2)cc1 [Reference compound 4, reference compound]	–	–	< 5.30	< 5.30
C=CC(=O)N1CCC(c2ccc(C(F)(F)F)nc2Nc2ccc(C(F)(F)F)cc2)CC1 [Compound T45]	5.30 to 6.00	6.00 to 7.00	–	–
C=CC(=O)N1CC(c2nccnc2Nc2ccc(C(F)(F)F)cc2)C1 [Compound T20]	≥ 7.00	≥ 7.00	–	–
FC(F)(F)c1ccc(Nc2ncccc2C2CCNCC2)cc1 [Reference compound 3, reference compound]	–	–	< 5.30	< 5.30
C=C(C)C(=O)N1CCC(c2cccnc2Nc2ccc(C(F)(F)F)cc2)CC1 [Compound T48]	5.30 to 6.00	5.30 to 6.00	–	–
C=CC(=O)N1CCC(c2c(C)ccnc2Nc2ccc(C(F)(F)F)cc2)CC1 [Compound T23]	≥ 7.00	≥ 7.00	–	–
C=CC(=O)N1CCC(c2cc(-c3ccccn3)cnc2Nc2ccc(C(F)(F)F)cc2)CC1 [Compound T95]	5.30 to 6.00	6.00 to 7.00	–	–
C=CC(=O)N1CCC(c2cc(C(F)(F)F)cnc2Oc2ccc(C(F)(F)F)cc2)CC1 [Compound T39]	6.00 to 7.00	6.00 to 7.00	–	–
C=CC(=O)N1CCC(c2nc(C)c(C)nc2Nc2ccc(C(F)(F)F)cc2)CC1 [Compound T93]	6.00 to 7.00	6.00 to 7.00	–	–
C=CC(=O)N1CCC(c2cc(Cl)cnc2Nc2ccc(C(F)(F)F)cc2)CC1 [Compound T28]	≥ 7.00	≥ 7.00	–	–
C=CC(=O)N1CCC(c2cc(-c3cccnc3)cnc2Nc2ccc(C(F)(F)F)cc2)CC1 [Compound T96]	5.30 to 6.00	6.00 to 7.00	–	–
C=CC(=O)N1CC=C(c2cccnc2Nc2ccc(C)cc2)C1 [Compound T14]	≥ 7.00	≥ 7.00	–	–
C=CC(=O)N1CCC(c2cc(OC)cnc2Nc2ccc(C(F)(F)F)cc2)CC1 [Compound T34]	6.00 to 7.00	6.00 to 7.00	–	–
